Data from patent EP0338887B1, “Phosphonoalkylpurine derivatives” (MERRELL DOW PHARMACEUTICALS INC., priority 1988, dated 1989).
Where two headings read alike, the source gives them in different places.

T1: purine nucleoside phosphorylase (PNP) (Rattus norvegicus, UniProt P85973)
T1 construct: Rat Erythrocytes; from tissue; host or cells: rat erythrocytes
T1 sequence (P85973 1-289): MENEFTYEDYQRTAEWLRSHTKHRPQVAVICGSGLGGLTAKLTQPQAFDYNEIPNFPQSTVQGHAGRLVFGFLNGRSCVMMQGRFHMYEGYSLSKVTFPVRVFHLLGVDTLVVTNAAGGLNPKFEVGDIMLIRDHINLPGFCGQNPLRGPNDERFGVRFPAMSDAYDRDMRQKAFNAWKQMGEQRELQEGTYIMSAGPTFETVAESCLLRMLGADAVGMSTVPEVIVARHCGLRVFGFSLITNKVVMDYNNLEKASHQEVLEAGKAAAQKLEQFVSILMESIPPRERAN

T2: purine nucleoside phosphorylase (PNP) (Homo sapiens, UniProt P00491)
T2 construct: Human Erythrocytes; from tissue; host or cells: human erythrocytes
T2 sequence (P00491 1-289): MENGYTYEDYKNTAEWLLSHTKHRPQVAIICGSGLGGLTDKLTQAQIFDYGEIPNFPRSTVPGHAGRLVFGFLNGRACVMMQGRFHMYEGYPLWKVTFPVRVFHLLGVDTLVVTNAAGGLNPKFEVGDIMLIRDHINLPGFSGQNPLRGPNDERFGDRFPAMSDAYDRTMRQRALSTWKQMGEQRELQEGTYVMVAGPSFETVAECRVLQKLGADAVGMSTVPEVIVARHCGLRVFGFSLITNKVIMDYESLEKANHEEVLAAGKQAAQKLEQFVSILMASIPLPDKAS

T3: purine nucleoside phosphorylase (PNP) (Bos taurus, UniProt P55859)
T3 construct: Calf Spleen; from tissue; host or cells: calf spleen
T3 sequence (P55859 1-289): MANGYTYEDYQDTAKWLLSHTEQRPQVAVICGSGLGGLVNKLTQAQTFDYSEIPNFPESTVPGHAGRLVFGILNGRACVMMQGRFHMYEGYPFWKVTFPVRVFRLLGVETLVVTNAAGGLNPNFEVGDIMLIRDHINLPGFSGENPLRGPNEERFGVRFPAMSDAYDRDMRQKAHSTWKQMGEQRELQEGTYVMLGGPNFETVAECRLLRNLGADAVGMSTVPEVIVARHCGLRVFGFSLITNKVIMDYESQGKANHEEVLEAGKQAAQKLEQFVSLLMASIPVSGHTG


Legend:
Format in all cases: biochemical
[1] = target: T1, purine nucleoside phosphorylase (PNP); assay: PNP inhibition, coupled xanthine oxidase method of Kalckar (rat erythrocyte PNP)
[2] = target: T2, purine nucleoside phosphorylase (PNP); assay: PNP inhibition, coupled xanthine oxidase method of Kalckar (human erythrocyte PNP)
[3] = target: T3, purine nucleoside phosphorylase (PNP); assay: PNP inhibition, coupled xanthine oxidase method of Kalckar (calf spleen PNP)
Method: (§1) Purine nucleoside phophorylase (PNP) inhibitory activity can be determined by the coupled xanthine oxidase method of Kalckar, using inosine as the substrate (H.M.Kalckar, J. Biol. Chem. 167, 429-443 (1947)). […] The Ki for representative members of the compounds of formula 1 are tabulated in table 1 and are compared to the KM values of the substrate inosine using PNP from various sources. […] The presence of 2'-deoxyguanosine (about 10 µM), a natural metabolite, appears to be important in in vitro activity.

[4] = substrate: OC[C@H]1O[C@@H](n2cnc3c(O)ncnc32)[C@H](O)[C@@H]1O; assay: PNP inhibition, coupled xanthine oxidase method of Kalckar (rat erythrocyte PNP); conditions: other: substrate KM for comparison; pH 7.4
[5] = substrate: OC[C@H]1O[C@@H](n2cnc3c(O)ncnc32)[C@H](O)[C@@H]1O; assay: PNP inhibition, coupled xanthine oxidase method of Kalckar (human erythrocyte PNP); conditions: other: substrate KM for comparison; pH 7.4
[6] = substrate: OC[C@H]1O[C@@H](n2cnc3c(O)ncnc32)[C@H](O)[C@@H]1O; assay: PNP inhibition, coupled xanthine oxidase method of Kalckar (calf spleen PNP); conditions: other: substrate KM for comparison; pH 7.4
Method: as §1

Row | Molecule | Ki [2] [M] | Ki [3] [M] | Ki [1] [M] | other results
1 | Nc1nc(O)c2ncn(CCCCCCCP(=O)(O)O)c2n1 [9-(7-phosphono-heptyl)guanine] | 6.8e-07 | 1.2e-06 | – | Ki ([1]; apparent dissociation constant, 1 mM inorganic phosphate, 0.1 M HEPES buffer (pH 7.4), inosine 0.05 mM to 0.15 mM as substrate, read-out: Ki (M) PNP SOURCE Rat Erythrocytes): 7.5e-08 M
2 | Nc1nc2c(ncn2CCCCCC(F)(F)P(=O)(O)O)c(=O)[nH]1 [9-(6-phosphono-6,6-difluorohexyl)guanine] | 2.8e-07 | 3.2e-07 | 1.8e-07 | –
3 | Nc1nc2c(ncn2CCCCCCC(F)(F)P(=O)(O)O)c(=O)[nH]1 [9-(7-phosphono-7,7-difluoroheptyl)guanine] | 8e-08 | 1.5e-07 | 9.6e-09 | –
4 | Nc1nc2c(ncn2CCCCC(F)(F)P(=O)(O)O)c(=O)[nH]1 [9-(5-phosphono-5,5-difluoropentyl)guanine] | – | – | 3.5e-08 | –
5 | O=c1[nH]cnc2c1ncn2CCCCCCC(F)(F)P(=O)(O)O [9-(7-phosphono-7,7-difluoroheptyl)hypoxanthine] | 1e-07 | 2.2e-06 | 1.6e-07 | –
6 | CCOP(=O)(O)C(F)(F)CCCCCCn1cnc2c(=O)[nH]c(N)nc21 [9-(7-phosphono-7,7-difluoroheptyl)guanine, ethyl ester] | – | – | 2.8e-07 | Ki ([2]; apparent dissociation constant, 1 mM inorganic phosphate, 0.1 M HEPES buffer (pH 7.4), inosine 0.05 mM to 0.15 mM as substrate, read-out: Ki (M) PNP SOURCE Human Erythrocytes): 8e-07 M; Ki ([3]; apparent dissociation constant, 1 mM inorganic phosphate, 0.1 M HEPES buffer (pH 7.4), inosine 0.05 mM to 0.15 mM as substrate, read-out: Ki (M) PNP SOURCE Calf Spleen): 3.3e-06 M
7 | Nc1nc2c(ncn2CCCCCCCC(F)(F)P(=O)(O)O)c(=O)[nH]1 [9-(8-phosphono-8,8-difluorooctyl)guanine] | 1.9e-07 | 6.2e-07 | 4.6e-09 | –
8 | purine nucleoside phosphorylase (PNP) (Rattus norvegicus) (protein, Rat Erythrocytes; from tissue; host or cells: rat erythrocytes) MENEFTYEDYQRTAEWLRSHTKHRPQVAVICGSGLGGLTAKLTQPQAFDYNEIPNFPQSTVQGHAGRLVFGFLNGRSCVMMQGRFHMYEGYSLSKVTFPVRVFHLLGVDTLVVTNAAGGLNPKFEVGDIMLIRDHINLPGFCGQNPLRGPNDERFGVRFPAMSDAYDRDMRQKAFNAWKQMGEQRELQEGTYIMSAGPTFETVAESCLLRMLGADAVGMSTVPEVIVARHCGLRVFGFSLITNKVVMDYNNLEKASHQEVLEAGKAAAQKLEQFVSILMESIPPRERAN | – | – | – | Km [4]: 80 x 10⁻⁶ M
9 | purine nucleoside phosphorylase (PNP) (Homo sapiens) (protein, Human Erythrocytes; from tissue; host or cells: human erythrocytes) MENGYTYEDYKNTAEWLLSHTKHRPQVAIICGSGLGGLTDKLTQAQIFDYGEIPNFPRSTVPGHAGRLVFGFLNGRACVMMQGRFHMYEGYPLWKVTFPVRVFHLLGVDTLVVTNAAGGLNPKFEVGDIMLIRDHINLPGFSGQNPLRGPNDERFGDRFPAMSDAYDRTMRQRALSTWKQMGEQRELQEGTYVMVAGPSFETVAECRVLQKLGADAVGMSTVPEVIVARHCGLRVFGFSLITNKVIMDYESLEKANHEEVLAAGKQAAQKLEQFVSILMASIPLPDKAS | – | – | – | Km [5]: 70 x 10⁻⁶ M
10 | purine nucleoside phosphorylase (PNP) (Bos taurus) (protein, Calf Spleen; from tissue; host or cells: calf spleen) MANGYTYEDYQDTAKWLLSHTEQRPQVAVICGSGLGGLVNKLTQAQTFDYSEIPNFPESTVPGHAGRLVFGILNGRACVMMQGRFHMYEGYPFWKVTFPVRVFRLLGVETLVVTNAAGGLNPNFEVGDIMLIRDHINLPGFSGENPLRGPNEERFGVRFPAMSDAYDRDMRQKAHSTWKQMGEQRELQEGTYVMLGGPNFETVAECRLLRNLGADAVGMSTVPEVIVARHCGLRVFGFSLITNKVIMDYESQGKANHEEVLEAGKQAAQKLEQFVSLLMASIPVSGHTG | – | – | – | Km [6]: 28 x 10⁻⁶ M
